Experimental data reported in patent US5972894A, “Peptides having potassium channel opener activity” (Cytran, Inc., priority 1997, dated 1999).

Legend:
ischemic myocardium = assay: Inotropic function and arrhythmias of ischemic isolated rat heart during reperfusion; details: for Diastolic Pressure in Ischemic Left Ventricle (% of Preischemic Mean Value) / Evolving Pressure in Ischemic Left Ventricle (% of Preischemic Mean Value) / Heart Rate during Reperfusion (% of Preischemic Mean Value) / Maximal Rate of Increase of Left Ventricle Pressure (% of Preischemic Mean Value) / Maximal Rate of Left Ventricle Pressure Decrease (% of Preischemic Mean Value) / Systolic Pressure in Ischemic Left Ventricle (% of Preischemic Values): 14.0 mg/l
Excerpt: Rat hearts were surgically isolated from white random-bred rats weighing approximately 250 g. The isolated hearts were perfused with a standard oxygenated (95% O2 and 5% CO2) Krebs-Henseleit solution in a retrograde manner (i.e., according to Langendorff and using a constant perfusate pressure of 80 cm of water). The hearts maintained a steady spontaneous contraction rate. A latex balloon catheter connected to a pressure transducer (EMT-746, Siemens-Elema, Sweden) was inserted into the left ventricle of each heart to measure the inotropic function of the heart (as described in Example 3, above). The left ventricle pressure variation curve was recorded using a polygraph.
Stage I ("adaptation regimen") consisted of a 30-minute adaptation of the respective rat hearts to the perfusion regimen. The baseline parameters for the inotropic function of each heart were recorded to establish the preischemic values for the following measured parameters: (i) the systolic pressure in the left ventricle (Psyst. mm Hg); (ii) the diastolic pressure in the left ventricle (Pdiast. mm Hg); (iii) the evolving pressure (Pev. =Psyst. -Pdist. mm Hg); (iv) the maximal rate of increase of left ventricle pressure (+dp/dtmax mm Hg/sec); and (v) the maximal rate of decrease of left ventricle pressure (-dp/dtmax mm Hg/sec). In addition, the heart rate (HR) of each heart was determined from the recordings made of the variations in the left ventricle pressure over time. In Stage II ("ischemic simulation"), ischemia was induced in each heart by shutting off the supply of the perfusion solution to the heart. Approximately 30 minutes later, Stage III ("reperfusion regimen") was initiated by restarting the reperfusion and including in the perfusate solution a test or control substance at one of the following respective concentrations: a perfusate solution of a test substance comprised 0.06, 0.6, or 6.0 mg/l GE, or 0.06, 0.6, or 6.0 mg/l VT, respectively; a perfusate solution of the positive control substance comprised 14 mg/l inosine. Inosine is a nucleoside preparation that produces a favorable inotropic effect on both normal and ischemic myocardium while inducing no rhythm disturbances or acceleration of ischemic contracture development. Woollard et al., Cardiovasc. Res. 15: 659-67 (1981). Inosine was obtained from Sigma Chemical Company, USA (Cat. Code I-4125; lot number 81H0227). The negative control substance comprised reperfusion using a standard oxygenated Krebs-Henseleit solution.
For each heart, the inotropic function of the myocardium was evaluated by measuring the parameters (i) through (v), discussed above, and the heart rate. These six parameters were recorded continuously throughout the study (i.e., beginning with Stage I and continuing through Stage III). The recordings were analyzed at the following times: (a) immediately before beginning Stage II (that is, after the 30-minute Stage I adaptation period, but before stopping perfusion); and (b) at 1, 5, 10, 20, and 30 minutes into the Stage III reperfusion.
The frequency and duration of rhythm disturbances in the 30-minute Stage III reperfusion period were determined by measuring the following parameters: (i) the number of ventricular extrasystoles; (ii) the overall duration of ventricular tachycardias (in seconds); and (iii) the overall duration of ventricular fibrillation (in seconds). Each dose of the test substance was tested on nine isolated hearts.

rats = assay: Arterial blood pressure in anesthetized rats; format: in vivo; details: 5 mg/kg i.v.
Experimental: White random-bred male rats weighing approximately 200 g were employed for this study. Each dose of each respective test or control substance was administered to a group of five rats. GE and VT were employed as test substances and were administered intravenously at doses of 0.01, 0.1, 1.0, and 10.0 mg/kg. Physiological saline (0.2 ml) served as the negative control substance. The ganglionic blocking agent, pentamine, served as the positive control substance and was tested at a dose of 5 mg/kg. Following administration of the test substance, positive control substance, or negative control substance, the arterial blood pressure of each animal was monitored.
Prior to administration of the test or control substance, each animal was anesthetized with Chloralose and then both its carotid artery and jugular vein were catheterized. The carotid catheter was connected to an electronic manometer attached to a computer recorder through an analog-to-digital converter. The mean basal level of the arterial blood pressure was determined as follows: For a period of 30 seconds, the digital signal pertaining to the arterial blood pressure was recorded at 1-second intervals. The mean value of these thirty individual measurements was then determined and recorded.
After determining the mean basal level of the arterial blood pressure, a particular dose of the test or control substance was administered in a volume of 0.2 ml of physiological saline to an animal through the jugular venous catheter. Measurements of the arterial blood pressure were then taken during the next 1.5 hours as follows: (i) during the first 5 minutes, the arterial blood pressure was being monitored continuously and mean values were calculated electronically and recorded at each of the ten different 30-second intervals (i.e., 30th second, 60th second, etc.); (ii) thereafter, mean values of the arterial blood pressure were calculated at the first seconds of 10th minute, 15th minute, 30th minute, 45th minute, 60th minute, 75th minute, and 90th minute after administration of the respective test or control substance.

Isolated Rat Heart = assay: Inotropic function of normal isolated rat heart, Langendorff perfusion; details: dose 0.01 mg
Excerpt: Rat heart specimens were obtained surgically from white random-bred male rats weighing approximately 250 g. The hearts were established in culture using retrograde heart perfusion according to the Langendorff method performed with a standard oxygenated (95% O2 and 5% CO2) Krebs-Henseleit solution through a glass aorta cannula. The retroperfusion pressure forces the aortic valves shut. In this way, the oxygenated solution passed only through the coronary vasculature of the heart such that both ventricles remain effectively empty. Perfusion conditions: An average constant perfusate flow rate of 15 to 25 ml/min was maintained with a constant perfusate pressure of 80 cm H2 O. Pressure Measurements: A latex balloon catheter connected with a pressure transducer ([…], Sweden) was inserted into the left ventricle of the heart to measure parameters of the inotropic function of the heart. The intraventricle pressure variation curve for the left ventricle was recorded with a polygraph. Experimental Protocol: GE and VT served as the test substances. After a 30-minute adaptation of the heart to the organ culture perfusion conditions, a set of basal (control) measurements was taken, as described in (i) through (v) below. […] See GOODMAN […] THE PHARMACOLOGICAL BASIS OF THERAPEUTICS 160 (Goodman et al., eds., 7th ed. 1985), incorporated herein by reference in its entirety for all purposes. Each dose of each respective test or reference substance was tested on four different rat hearts. The inotropic functions of each of the four rat hearts were evaluated by measuring: (i) the systolic pressure in the left ventricle ([…] diastolic pressure in the left ventricle ([…] evolving pressure (Pev. =[…]); (iv) the maximal rate of increase of left ventricle pressure (+dp/dtmax mm Hg/sec); and (v) the maximal rate of decrease of left ventricle pressure (-dp/dtmax mm Hg/sec). In addition, the heart rate (HR) of each heart was determined from the pressure variation recordings made of the left ventricle pressure.

[1] = 14.1 mg/l, 30-minute reperfusion

## OC[C@H]1O[C@@H](n2cnc3c(O)ncnc32)[C@H](O)[C@@H]1O [Inosine, reference compound]
Ischemic myocardium; 1 min reperfusion
  Diastolic Pressure in Ischemic Left Ventricle (% of Preischemic Mean Value): 92.35%
  Evolving Pressure in Ischemic Left Ventricle (% of Preischemic Mean Value): 57.13%
  Heart Rate during Reperfusion (% of Preischemic Mean Value): 45.37%
  Maximal Rate of Increase of Left Ventricle Pressure (% of Preischemic Mean Value): 50.85%
  Maximal Rate of Left Ventricle Pressure Decrease (% of Preischemic Mean Value): 41.91%
  Systolic Pressure in Ischemic Left Ventricle (% of Preischemic Values): 62.15%
Ischemic myocardium; 5 min reperfusion
  Diastolic Pressure in Ischemic Left Ventricle (% of Preischemic Mean Value): 111.83%
  Evolving Pressure in Ischemic Left Ventricle (% of Preischemic Mean Value): 57.59%
  Heart Rate during Reperfusion (% of Preischemic Mean Value): 69.97%
  Maximal Rate of Increase of Left Ventricle Pressure (% of Preischemic Mean Value): 54.25%
  Maximal Rate of Left Ventricle Pressure Decrease (% of Preischemic Mean Value): 65.94%
  Systolic Pressure in Ischemic Left Ventricle (% of Preischemic Values): 66.17%
Ischemic myocardium; 10 min reperfusion
  Diastolic Pressure in Ischemic Left Ventricle (% of Preischemic Mean Value): 139.32%
  Evolving Pressure in Ischemic Left Ventricle (% of Preischemic Mean Value): 82.33%
  Heart Rate during Reperfusion (% of Preischemic Mean Value): 67.52%
  Maximal Rate of Increase of Left Ventricle Pressure (% of Preischemic Mean Value): 82.35%
  Maximal Rate of Left Ventricle Pressure Decrease (% of Preischemic Mean Value): 78.85%
  Systolic Pressure in Ischemic Left Ventricle (% of Preischemic Values): 86.05%
Ischemic myocardium; 20 min reperfusion
  Diastolic Pressure in Ischemic Left Ventricle (% of Preischemic Mean Value): 148.63%
  Evolving Pressure in Ischemic Left Ventricle (% of Preischemic Mean Value): 94.19%
  Heart Rate during Reperfusion (% of Preischemic Mean Value): 79.97%
  Maximal Rate of Increase of Left Ventricle Pressure (% of Preischemic Mean Value): 83.58%
  Maximal Rate of Left Ventricle Pressure Decrease (% of Preischemic Mean Value): 91.83%
  Systolic Pressure in Ischemic Left Ventricle (% of Preischemic Values): 99.29%
Ischemic myocardium; 30 min reperfusion
  Diastolic Pressure in Ischemic Left Ventricle (% of Preischemic Mean Value): 149.42%
  Evolving Pressure in Ischemic Left Ventricle (% of Preischemic Mean Value): 91.68%
  Heart Rate during Reperfusion (% of Preischemic Mean Value): 75.60%
  Maximal Rate of Increase of Left Ventricle Pressure (% of Preischemic Mean Value): 77.85%
  Maximal Rate of Left Ventricle Pressure Decrease (% of Preischemic Mean Value): 93.88%
  Systolic Pressure in Ischemic Left Ventricle (% of Preischemic Values): 96.62%
Ischemic myocardium; 14 mg/l, after approximately 10 to 20 minutes
  -dp/dtmax, % of preischemic value: about 80%
Ischemic myocardium; [1]
  Number of Ventricular Extrasystoles: 230.4
  Overall Duration of Ventricular Fibrillation: 52.9 s
  Overall Duration of Ventricular Tachycardia: 1.3 s

## CC[N+](C)(C)CCN(C)CC[N+](C)(C)CC [Pentamine, pentamine, reference compound]
rats; 1 min
  Arterial Blood Pressure (Basal Level = 100.00): 87.09%
rats; 2 min
  Arterial Blood Pressure (Basal Level = 100.00): 68.18%
rats; 3 min
  Arterial Blood Pressure (Basal Level = 100.00): 70.82%
rats; 4 min
  Arterial Blood Pressure (Basal Level = 100.00): 69.29%
rats; 5 min
  Arterial Blood Pressure (Basal Level = 100.00): 74.11%
rats; 10 min
  Arterial Blood Pressure (Basal Level = 100.00): 91.63%
rats; 15 min
  Arterial Blood Pressure (Basal Level = 100.00): 89.94%
rats; 30 min
  Arterial Blood Pressure (Basal Level = 100.00): 86.95%
rats; 45 min
  Arterial Blood Pressure (Basal Level = 100.00): 93.89%
rats; 60 min
  Arterial Blood Pressure (Basal Level = 100.00): 100.31%
rats; 75 min
  Arterial Blood Pressure (Basal Level = 100.00): 94.38%
rats; 90 min
  Arterial Blood Pressure (Basal Level = 100.00): 93.22%

## CC(C)NCC(O)c1ccc(O)c(O)c1 (stereo not drawn) [Isoproterenol, isoproterenol, reference compound]
Isolated Rat Heart
  +dp/dtmax % of Basal Level: 122%
  +dp/dtmax Subst. Level: 2110 mm Hg/sec
  -dp/dtmax % of Basal Level: 112%
  -dp/dtmax Subst. Level: 1140 mm Hg/sec
  HR % of Basal Level: 133%
  HR abs, Subst. Level: 255 hb/min
  Pdiast % of Basal Level: 120%
  Pdiast abs, Subst. Level: 12 mm Hg
  Pev % of Basal Level: 118%
  Pev Subst. Level: 108 mm Hg
  Psyst % of Basal Level: 117%
